Assay results: ChEMBL document CHEMBL5252555, “Antimicrobial Polyketides from the Marine-Derived Fungus Spiromastix sp. SCSIO F190” (J Nat Prod, 2023)
Converted amounts (≈) assume the structure as drawn. The source made the active and inactive calls. No cut-off for these calls is given here.

Columns and labels:
[1] = system: Staphylococcus aureus; assay: Antibacterial activity against Staphylococcus aureus 991 assessed as inhibition of bacterial growth incubated for 18 hrs by broth microdilution method; assay type: functional
[2] = system: Staphylococcus simulans; assay: Antibacterial activity against Staphylococcus simulans AKA1 assessed as inhibition of bacterial growth incubated for 18 hrs by broth microdilution method; assay type: functional
[3] = system: HeLa; assay: Cytotoxicity against human HeLa cells incubated for 48 hrs by CCK-8 assay; assay type: functional, cell-based
[4] = system: HUVEC; assay: Cytotoxicity against HUVEC cells incubated for 48 hrs by CCK-8 assay; assay type: toxicity, cell-based; settings: human
[5] = system: HCT-116; assay: Cytotoxicity against human HCT-116 cells incubated for 48 hrs by CCK-8 assay; assay type: functional, cell-based
[6] = system: Micrococcus luteus; assay: Antibacterial activity against Micrococcus luteus ML01 assessed as inhibition of bacterial growth incubated for 18 hrs by broth microdilution method; assay type: functional
[7] = system: Staphylococcus aureus; assay: Antibacterial activity against methicillin-resistant Staphylococcus aureus assessed as inhibition of bacterial growth incubated for 18 hrs by broth microdilution method; assay type: functional
[8] = system: Enterococcus faecium; assay: Antibacterial activity against Enterococcus faecium 36711 assessed as inhibition of bacterial growth incubated for 18 hrs by broth microdilution method; assay type: functional
[9] = system: Staphylococcus aureus; assay: Antibacterial activity against Staphylococcus aureus 16162 assessed as inhibition of bacterial growth incubated for 18 hrs by broth microdilution method; assay type: functional
[10] = system: Staphylococcus aureus; assay: Antibacterial activity against Staphylococcus aureus 6917 assessed as inhibition of bacterial growth incubated for 18 hrs by broth microdilution method; assay type: functional
[11] = system: Staphylococcus aureus; assay: Antibacterial activity against Staphylococcus aureus 16339 assessed as inhibition of bacterial growth incubated for 18 hrs by broth microdilution method; assay type: functional
[12] = system: MCF7; assay: Cytotoxicity against human MCF7 cells incubated for 48 hrs by CCK-8 assay; assay type: functional, cell-based
[13] = system: Staphylococcus aureus; assay: Antibacterial activity against Staphylococcus aureus ATCC 29213 assessed as inhibition of bacterial growth incubated for 18 hrs by broth microdilution method; assay type: functional
[14] = system: RBE; assay: Cytotoxicity against human RBE cells incubated for 48 hrs by CCK-8 assay; assay type: functional, cell-based
[15] = system: Enterococcus faecium; assay: Antibacterial activity against Enterococcus faecium 36235 assessed as inhibition of bacterial growth incubated for 18 hrs by broth microdilution method; assay type: functional
[16] = system: A549; assay: Cytotoxicity against human A549 cells incubated for 48 hrs by CCK-8 assay; assay type: functional, cell-based
[17] = system: Staphylococcus aureus; assay: Antibacterial activity against Staphylococcus aureus GDE4P037P assessed as inhibition of bacterial growth incubated for 18 hrs by broth microdilution method; assay type: functional
[18] = system: Enterococcus gallinarum; assay: Antibacterial activity against Enterococcus gallinarum 5F52C assessed as inhibition of bacterial growth incubated for 18 hrs by broth microdilution method; assay type: functional
[19] = system: Enterococcus faecalis; assay: Antibacterial activity against Enterococcus faecalis 36950 assessed as inhibition of bacterial growth incubated for 18 hrs by broth microdilution method; assay type: functional
[20] = system: Staphylococcus aureus; assay: Antibacterial activity against Staphylococcus aureus 1862 assessed as inhibition of bacterial growth incubated for 18 hrs by broth microdilution method; assay type: functional
[21] = system: HepG2; assay: Cytotoxicity against human HepG2 cells incubated for 48 hrs by CCK-8 assay; assay type: functional, cell-based
[22] = system: Enterococcus faecalis; assay: Antibacterial activity against Enterococcus faecalis ATCC 29212 assessed as inhibition of bacterial growth incubated for 18 hrs by broth microdilution method; assay type: functional
[23] = system: Staphylococcus aureus; assay: Antibacterial activity against Staphylococcus aureus 3090 assessed as inhibition of bacterial growth incubated for 18 hrs by broth microdilution method; assay type: functional
[24] = system: Staphylococcus aureus; assay: Antibacterial activity against Staphylococcus aureus 745324 assessed as inhibition of bacterial growth incubated for 18 hrs by broth microdilution method; assay type: functional
[25] = system: Staphylococcus aureus; assay: Antibacterial activity against Staphylococcus aureus 669 assessed as inhibition of bacterial growth incubated for 18 hrs by broth microdilution method; assay type: functional
[26] = system: Enterococcus faecium; assay: Antibacterial activity against Enterococcus faecium 35682 assessed as inhibition of bacterial growth incubated for 18 hrs by broth microdilution method; assay type: functional
[27] = Cytotoxicity against human LX2 cells incubated for 48 hrs by CCK-8 assay; assay type: toxicity, cell-based; settings: lx-2, 48 h
[28] = system: Bacillus subtilis; assay: Antibacterial activity against Bacillus subtilis BS01 assessed as inhibition of bacterial growth incubated for 18 hrs by broth microdilution method; assay type: functional
[29] = system: Staphylococcus aureus; assay: Antibacterial activity against Staphylococcus aureus 718306 assessed as inhibition of bacterial growth incubated for 18 hrs by broth microdilution method; assay type: functional

Compound	MIC [1] [µg/mL]	MIC [2] [µg/mL]	MIC [6] [µg/mL]	MIC [7] [µg/mL]	MIC [8] [µg/mL]	MIC [9] [µg/mL]	MIC [10] [µg/mL]	MIC [11] [µg/mL]	MIC [13] [µg/mL]	MIC [15] [µg/mL]	MIC [17] [µg/mL]	MIC [18] [µg/mL]	MIC [19] [µg/mL]	MIC [20] [µg/mL]	MIC [22] [µg/mL]	MIC [23] [µg/mL]	MIC [24] [µg/mL]	MIC [25] [µg/mL]	MIC [26] [µg/mL]	MIC [28] [µg/mL]	also measured
CCCc1cc(Oc2c(O)c(Cl)c(O)c(Cl)c2CCC)c(Cl)c(OC)c1Cl	2 (≈ 4.4 µM)	2 (≈ 4.4 µM)	1 (≈ 2.2 µM)	2 (≈ 4.4 µM)	2 (≈ 4.4 µM)	2 (≈ 4.4 µM)	2 (≈ 4.4 µM)	2 (≈ 4.4 µM)	2 (≈ 4.4 µM)	1 (≈ 2.2 µM)	2 (≈ 4.4 µM)	4 (≈ 8.81 µM)	0.5 (≈ 1.1 µM)	2 (≈ 4.4 µM)	2 (≈ 4.4 µM)	2 (≈ 4.4 µM)	2 (≈ 4.4 µM)	2 (≈ 4.4 µM)	2 (≈ 4.4 µM)	1 (≈ 2.2 µM)	Activity [3]: inactive; Activity [4]: Non-Toxic; Activity [5]: inactive; Activity [12]: inactive; Activity [14]: inactive; Activity [16]: inactive; Activity [21]: inactive; Activity [27]: Non-Toxic; MIC [29]: 1 µg/mL (≈ 2.2 µM)
CCCc1c(O)c(Oc2c(Cl)c(O)c(Cl)c(CCC)c2C(=O)OC)c(Cl)c(OC)c1Cl	8 (≈ 15.6 µM)	4 (≈ 7.81 µM)	4 (≈ 7.81 µM)	8 (≈ 15.6 µM)	8 (≈ 15.6 µM)	8 (≈ 15.6 µM)	8 (≈ 15.6 µM)	8 (≈ 15.6 µM)	8 (≈ 15.6 µM)	8 (≈ 15.6 µM)	16 (≈ 31.2 µM)	4 (≈ 7.81 µM)	4 (≈ 7.81 µM)	8 (≈ 15.6 µM)	16 (≈ 31.2 µM)	8 (≈ 15.6 µM)	8 (≈ 15.6 µM)	8 (≈ 15.6 µM)	16 (≈ 31.2 µM)	4 (≈ 7.81 µM)	MIC [29]: 16 µg/mL (≈ 31.2 µM)
COc1c(Cl)c(O)c(Cl)c2c1C(=O)O[C@H](C)C2	> 128	> 128	> 128	> 128	> 128	> 128	> 128	> 128	> 128	> 128	> 128	> 128	> 128	> 128	> 128	> 128	> 128	> 128	> 128	> 128	MIC [29]: > 128 µg/mL
CCCc1c(Cl)c(OC)cc2c1Oc1c(Cl)c(O)c(Cl)c(CCC)c1C(=O)O2	2 (≈ 4.49 µM)	0.5 (≈ 1.12 µM)	1 (≈ 2.24 µM)	2 (≈ 4.49 µM)	2 (≈ 4.49 µM)	2 (≈ 4.49 µM)	4 (≈ 8.97 µM)	2 (≈ 4.49 µM)	4 (≈ 8.97 µM)	4 (≈ 8.97 µM)	4 (≈ 8.97 µM)	2 (≈ 4.49 µM)	0.5 (≈ 1.12 µM)	2 (≈ 4.49 µM)	2 (≈ 4.49 µM)	2 (≈ 4.49 µM)	4 (≈ 8.97 µM)	4 (≈ 8.97 µM)	8 (≈ 17.9 µM)	0.5 (≈ 1.12 µM)	MIC [29]: 2 µg/mL (≈ 4.49 µM)
CCCc1c(Cl)c(O)cc2c1Oc1cc(O)c(Cl)c(CCC)c1C(=O)O2	2 (≈ 5.03 µM)	4 (≈ 10.1 µM)	8 (≈ 20.1 µM)	4 (≈ 10.1 µM)	16 (≈ 40.3 µM)	4 (≈ 10.1 µM)	8 (≈ 20.1 µM)	4 (≈ 10.1 µM)	4 (≈ 10.1 µM)	16 (≈ 40.3 µM)	8 (≈ 20.1 µM)	8 (≈ 20.1 µM)	2 (≈ 5.03 µM)	4 (≈ 10.1 µM)	8 (≈ 20.1 µM)	4 (≈ 10.1 µM)	4 (≈ 10.1 µM)	2 (≈ 5.03 µM)	32 (≈ 80.6 µM)	1 (≈ 2.52 µM)	MIC [29]: 8 µg/mL (≈ 20.1 µM)
CN[C@H](CC(C)C)C(=O)N[C@H]1C(=O)N[C@@H](CC(N)=O)C(=O)N[C@H]2C(=O)N[C@H]3C(=O)N[C@H](C(=O)N[C@H](C(=O)O)c4cc(O)cc(O)c4-c4cc3ccc4O)[C@H](O)c3ccc(c(Cl)c3)Oc3cc2cc(c3O[C@@H]2O[C@H](CO)[C@@H](O)[C@H](O)[C@H]2O[C@H]2C[C@](C)(N)[C@H](O)[C@H](C)O2)Oc2ccc(cc2Cl)[C@H]1O [VANCOMYCIN]	–	0.5 (≈ 0.345 µM)	0.13 (≈ 0.0897 µM)	–	> 64	–	–	–	–	> 64	–	4 (≈ 2.76 µM)	0.5 (≈ 0.345 µM)	–	2 (≈ 1.38 µM)	–	–	–	> 64	0.125 (≈ 0.0863 µM)	–
